Key:
Assay in all cases: pEC50 of peptide local stability change
MurD = MurD (UniProt P14900); conditions: peptide sequence: YLNGDNVR; direction: stabilized; replicate design: treated separately
Outline: (§1)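 Reported values are mean pEC50 estimates. They come from four-parameter log-logistic fits of treated/control peptide ratios, measured by DIA LC–MS/MS in four replicates of E. coli K-12 BW25113 lysate (1.2 mg ml^−1, desalted, MgCl2-supplemented) given ATP at seven doses (10 µM–10 mM) or water for 30 min at 25 °C and trypsin-digested for 4 min at 22 °C. A value was kept only when R^2 exceeded 0.9 in at least three replicates and the coefficient of variation was no more than 0.25.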

UniProt P03007 = conditions: peptide sequence: VTDSLAVAR; direction: stabilized; replicate design: treated separately
Sequence of UniProt P03007 (P03007 whole entry): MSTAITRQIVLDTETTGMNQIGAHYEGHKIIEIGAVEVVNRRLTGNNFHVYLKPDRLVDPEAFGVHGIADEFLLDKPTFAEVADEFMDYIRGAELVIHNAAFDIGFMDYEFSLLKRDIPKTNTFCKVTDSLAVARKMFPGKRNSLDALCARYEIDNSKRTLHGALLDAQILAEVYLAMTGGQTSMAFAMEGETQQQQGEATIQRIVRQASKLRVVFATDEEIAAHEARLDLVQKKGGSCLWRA
Outline: as §1

UniProt P06999 = conditions: peptide sequence: ELTQPDDVR; direction: stabilized; replicate design: treated separately
Sequence of UniProt P06999 (P06999 whole entry): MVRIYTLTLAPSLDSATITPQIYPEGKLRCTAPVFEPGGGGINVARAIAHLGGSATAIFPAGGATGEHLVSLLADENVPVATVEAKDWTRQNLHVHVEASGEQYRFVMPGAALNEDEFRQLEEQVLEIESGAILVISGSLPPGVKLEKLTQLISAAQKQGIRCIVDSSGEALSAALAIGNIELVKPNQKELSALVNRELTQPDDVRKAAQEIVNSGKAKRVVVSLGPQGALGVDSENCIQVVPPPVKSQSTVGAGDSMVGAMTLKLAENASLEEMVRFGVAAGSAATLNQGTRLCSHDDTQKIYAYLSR
Outline: as §1

UniProt P07118 = conditions: peptide sequence: ITPAHDFNDYEVGKR; direction: stabilized; replicate design: treated separately
Sequence of UniProt P07118 (P07118 whole entry): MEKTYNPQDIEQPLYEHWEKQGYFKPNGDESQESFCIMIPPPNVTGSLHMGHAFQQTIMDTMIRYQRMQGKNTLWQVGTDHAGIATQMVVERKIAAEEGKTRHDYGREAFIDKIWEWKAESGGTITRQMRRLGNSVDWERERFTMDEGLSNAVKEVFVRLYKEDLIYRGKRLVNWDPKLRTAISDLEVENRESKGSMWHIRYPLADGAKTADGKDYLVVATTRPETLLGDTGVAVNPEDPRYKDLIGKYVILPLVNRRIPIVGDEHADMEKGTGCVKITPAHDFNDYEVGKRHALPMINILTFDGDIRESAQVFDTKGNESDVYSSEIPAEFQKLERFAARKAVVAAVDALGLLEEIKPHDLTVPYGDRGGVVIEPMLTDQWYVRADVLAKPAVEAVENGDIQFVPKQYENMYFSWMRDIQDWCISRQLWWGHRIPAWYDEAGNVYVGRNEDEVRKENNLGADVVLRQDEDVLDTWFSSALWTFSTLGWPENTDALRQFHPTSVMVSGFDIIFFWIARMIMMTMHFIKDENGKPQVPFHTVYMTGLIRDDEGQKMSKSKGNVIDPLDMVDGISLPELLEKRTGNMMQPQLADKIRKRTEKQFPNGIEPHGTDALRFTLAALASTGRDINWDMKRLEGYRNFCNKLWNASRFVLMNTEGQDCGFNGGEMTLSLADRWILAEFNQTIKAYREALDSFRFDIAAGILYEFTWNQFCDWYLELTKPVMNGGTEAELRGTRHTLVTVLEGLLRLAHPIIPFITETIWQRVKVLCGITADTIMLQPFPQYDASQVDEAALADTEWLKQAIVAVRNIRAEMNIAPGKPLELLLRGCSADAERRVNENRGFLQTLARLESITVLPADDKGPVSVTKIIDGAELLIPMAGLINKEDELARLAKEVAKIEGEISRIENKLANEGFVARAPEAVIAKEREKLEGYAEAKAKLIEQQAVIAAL
Outline: as §1

UniProt P07604 = conditions: peptide sequence: YAWPGNVR; direction: stabilized; replicate design: treated separately
Outline: as §1

UniProt P08192 = conditions: peptide sequence: ASGLEVSENAIR; direction: stabilized; replicate design: treated separately
Sequence of UniProt P08192 (P08192 whole entry): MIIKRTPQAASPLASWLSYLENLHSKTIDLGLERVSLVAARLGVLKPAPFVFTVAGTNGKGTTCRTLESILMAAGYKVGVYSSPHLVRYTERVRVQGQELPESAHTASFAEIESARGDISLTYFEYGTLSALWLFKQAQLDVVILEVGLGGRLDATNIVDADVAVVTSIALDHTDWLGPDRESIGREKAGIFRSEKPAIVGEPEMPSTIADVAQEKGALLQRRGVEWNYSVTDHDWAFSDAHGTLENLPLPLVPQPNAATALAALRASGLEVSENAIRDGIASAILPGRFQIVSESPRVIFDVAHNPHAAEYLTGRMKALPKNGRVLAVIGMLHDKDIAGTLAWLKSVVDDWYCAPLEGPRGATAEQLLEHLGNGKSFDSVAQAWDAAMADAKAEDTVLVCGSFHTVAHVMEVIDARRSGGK
Outline: as §1

UniProt P0AA41 = conditions: peptide sequence: EDKGPQPAVTHYR; direction: stabilized; replicate design: treated separately
Outline: as §1

UniProt P0AES0 = conditions: peptide sequence: GDESLVIKK; direction: stabilized; replicate design: treated separately
Sequence of UniProt P0AES0 (P0AES0 whole entry): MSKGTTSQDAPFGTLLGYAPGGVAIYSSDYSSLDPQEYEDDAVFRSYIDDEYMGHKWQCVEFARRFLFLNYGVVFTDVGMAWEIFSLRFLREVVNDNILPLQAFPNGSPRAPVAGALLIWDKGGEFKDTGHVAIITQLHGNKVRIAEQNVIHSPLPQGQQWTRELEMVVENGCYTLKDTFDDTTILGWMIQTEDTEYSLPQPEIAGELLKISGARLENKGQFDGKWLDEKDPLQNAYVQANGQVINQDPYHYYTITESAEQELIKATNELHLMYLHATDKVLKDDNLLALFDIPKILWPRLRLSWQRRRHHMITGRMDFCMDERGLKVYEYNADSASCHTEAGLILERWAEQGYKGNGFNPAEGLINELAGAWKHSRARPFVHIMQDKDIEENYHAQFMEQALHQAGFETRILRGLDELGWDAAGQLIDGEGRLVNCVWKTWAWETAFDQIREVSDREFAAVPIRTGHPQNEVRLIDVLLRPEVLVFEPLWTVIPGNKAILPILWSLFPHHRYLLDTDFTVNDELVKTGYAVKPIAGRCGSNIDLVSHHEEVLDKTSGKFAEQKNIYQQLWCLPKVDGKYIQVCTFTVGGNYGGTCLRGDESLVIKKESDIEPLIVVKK
Outline: as §1

UniProt P0AFU4 = conditions: peptide sequence: LMTASWPGNVR; direction: stabilized; replicate design: treated separately
Outline: as §1

UniProt P0AFW8 = conditions: peptide sequence: KNVEYLVVEAAGETR; direction: stabilized; replicate design: treated separately
Sequence of UniProt P0AFW8 (P0AFW8 whole entry): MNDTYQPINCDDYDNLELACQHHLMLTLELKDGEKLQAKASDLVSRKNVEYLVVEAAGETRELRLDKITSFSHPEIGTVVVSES
Outline: as §1

UniProt P0C0L2 = conditions: peptide sequence: GQAHWEGDIKR; direction: stabilized; replicate design: treated separately
Outline: as §1

UniProt P11868 = conditions: peptide sequence: HIAGHAASLR; direction: stabilized; replicate design: treated separately
Outline: as §1

UniProt P18392 = conditions: peptide sequence: EHIFEPFVR; direction: stabilized; replicate design: treated separately
Outline: as §1

UniProt P21693 = conditions: peptide sequence: DSLQHAPHIIVATPGR; direction: stabilized; replicate design: treated separately
Outline: as §1

UniProt P23874 = conditions: peptide sequence: ISVAGAQEK; direction: stabilized; replicate design: treated separately
Outline: as §1

UniProt P24182 = conditions: peptide sequence: LMGDKVSAIAAMKK; direction: stabilized; replicate design: treated separately
Outline: as §1

UniProt P24230 = conditions: peptide sequence: LVQGDVGSGK; direction: stabilized; replicate design: treated separately
Outline: as §1

UniProt P25741 = conditions: peptide sequence: GKDAFAEVK; direction: stabilized; replicate design: treated separately
Outline: as §1

UniProt P27296 = conditions: peptide sequence: AQIAAWYK; direction: stabilized; replicate design: treated separately
Outline: as §1

UniProt P27833 = conditions: peptide sequence: SALINFLK; direction: stabilized; replicate design: treated separately
Outline: as §1

UniProt P30844 = conditions: peptide sequence: AGQSFSSGNYQHVK; direction: stabilized; replicate design: treated separately
Sequence of UniProt P30844 (P30844 whole entry): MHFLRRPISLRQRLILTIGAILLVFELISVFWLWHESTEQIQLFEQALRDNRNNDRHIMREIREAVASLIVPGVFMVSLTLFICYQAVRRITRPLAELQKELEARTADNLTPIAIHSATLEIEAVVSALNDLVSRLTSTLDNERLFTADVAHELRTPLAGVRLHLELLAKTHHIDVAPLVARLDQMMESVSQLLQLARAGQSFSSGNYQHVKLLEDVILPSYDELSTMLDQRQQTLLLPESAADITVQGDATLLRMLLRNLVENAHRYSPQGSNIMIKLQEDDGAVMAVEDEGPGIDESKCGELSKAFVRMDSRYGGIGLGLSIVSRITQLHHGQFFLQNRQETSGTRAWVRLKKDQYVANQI
Outline: as §1

UniProt P33593 = conditions: peptide sequence: LADDVAVMSDGK; direction: stabilized; replicate design: treated separately
Sequence of UniProt P33593 (P33593 whole entry): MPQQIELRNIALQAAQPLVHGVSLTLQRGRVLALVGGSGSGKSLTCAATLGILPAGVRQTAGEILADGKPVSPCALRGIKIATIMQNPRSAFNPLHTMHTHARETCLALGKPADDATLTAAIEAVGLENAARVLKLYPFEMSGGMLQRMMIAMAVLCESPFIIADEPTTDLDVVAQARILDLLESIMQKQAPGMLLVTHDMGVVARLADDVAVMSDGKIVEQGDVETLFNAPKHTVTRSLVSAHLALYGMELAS
Outline: as §1

UniProt P37634 = conditions: peptide sequence: HTVQSLIIESLKEK; direction: stabilized; replicate design: treated separately
Outline: as §1

UniProt P39177 = conditions: peptide sequence: NPSISTHLLGSNASSVIR; direction: stabilized; replicate design: treated separately
Sequence of UniProt P39177 (P39177 whole entry): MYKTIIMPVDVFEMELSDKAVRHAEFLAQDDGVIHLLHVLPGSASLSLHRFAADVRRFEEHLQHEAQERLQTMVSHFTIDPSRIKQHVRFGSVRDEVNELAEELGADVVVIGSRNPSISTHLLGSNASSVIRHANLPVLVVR
Outline: as §1

UniProt P39359 = conditions: peptide sequence: EVADFLINK; direction: stabilized; replicate design: treated separately
Outline: as §1

UniProt P40719 = conditions: peptide sequence: RFTSDAAHELR; direction: stabilized; replicate design: treated separately
Sequence of UniProt P40719 (P40719 whole entry): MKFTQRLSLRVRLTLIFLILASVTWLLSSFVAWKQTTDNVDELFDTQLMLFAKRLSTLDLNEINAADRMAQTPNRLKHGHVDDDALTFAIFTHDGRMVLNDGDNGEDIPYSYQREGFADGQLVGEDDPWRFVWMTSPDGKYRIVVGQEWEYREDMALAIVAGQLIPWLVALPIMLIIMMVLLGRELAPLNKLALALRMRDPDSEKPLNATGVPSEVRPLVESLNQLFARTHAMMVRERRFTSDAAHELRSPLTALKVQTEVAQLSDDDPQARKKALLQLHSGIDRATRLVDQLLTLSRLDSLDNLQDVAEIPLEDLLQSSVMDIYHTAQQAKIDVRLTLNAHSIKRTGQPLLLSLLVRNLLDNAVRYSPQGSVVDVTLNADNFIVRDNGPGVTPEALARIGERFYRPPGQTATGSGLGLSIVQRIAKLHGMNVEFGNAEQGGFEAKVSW
Outline: as §1

UniProt P64610 = conditions: peptide sequence: YYAHLGR; direction: stabilized; replicate design: treated separately
Sequence of UniProt P64610 (P64610 whole entry): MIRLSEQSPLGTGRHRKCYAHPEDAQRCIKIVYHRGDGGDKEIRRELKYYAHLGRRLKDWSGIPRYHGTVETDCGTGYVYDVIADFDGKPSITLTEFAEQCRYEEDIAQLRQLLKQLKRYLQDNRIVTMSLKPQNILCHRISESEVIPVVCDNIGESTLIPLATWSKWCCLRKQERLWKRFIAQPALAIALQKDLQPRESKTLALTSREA
Outline: as §1

UniProt P75828 = conditions: peptide sequence: YLDIINR; direction: stabilized; replicate design: treated separately
Sequence of UniProt P75828 (P75828 whole entry): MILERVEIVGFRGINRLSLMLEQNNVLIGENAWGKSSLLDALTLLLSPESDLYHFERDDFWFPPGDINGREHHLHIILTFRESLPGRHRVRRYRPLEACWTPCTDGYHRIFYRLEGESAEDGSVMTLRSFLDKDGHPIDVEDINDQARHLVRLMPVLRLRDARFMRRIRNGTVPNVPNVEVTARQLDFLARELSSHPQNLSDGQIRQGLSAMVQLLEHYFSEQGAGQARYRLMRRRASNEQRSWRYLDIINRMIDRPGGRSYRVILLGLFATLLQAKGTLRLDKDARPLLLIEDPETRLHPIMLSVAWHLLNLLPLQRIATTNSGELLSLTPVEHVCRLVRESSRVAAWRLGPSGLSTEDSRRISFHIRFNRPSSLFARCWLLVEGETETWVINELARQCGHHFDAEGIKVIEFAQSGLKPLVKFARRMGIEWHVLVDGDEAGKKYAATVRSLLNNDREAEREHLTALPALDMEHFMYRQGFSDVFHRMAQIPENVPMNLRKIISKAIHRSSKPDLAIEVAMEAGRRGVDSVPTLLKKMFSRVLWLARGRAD
Outline: as §1

UniProt P75957 = conditions: peptide sequence: KKPAEINSR; direction: stabilized; replicate design: treated separately
Outline: as §1

UniProt P76419 = conditions: peptide sequence: GGDCAPTREELLLAHK; direction: stabilized; replicate design: treated separately
Outline: as §1

UniProt P76422 = conditions: peptide sequence: GGHLDDEQSPDWLFTR; direction: stabilized; replicate design: treated separately
Sequence of UniProt P76422 (P76422 whole entry): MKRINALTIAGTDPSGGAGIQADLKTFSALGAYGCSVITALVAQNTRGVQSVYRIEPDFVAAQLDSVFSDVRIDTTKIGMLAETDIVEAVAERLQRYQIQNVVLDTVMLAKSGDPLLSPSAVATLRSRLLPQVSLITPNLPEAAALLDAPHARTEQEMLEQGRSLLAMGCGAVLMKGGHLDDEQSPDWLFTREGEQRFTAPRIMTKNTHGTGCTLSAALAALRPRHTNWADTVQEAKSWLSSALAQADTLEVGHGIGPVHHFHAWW
Outline: as §1

Nc1ncnc2c1ncn2[C@@H]1O[C@H](COP(=O)(O)OP(=O)(O)OP(=O)(O)O)[C@@H](O)[C@H]1O [adenosine 5'-triphosphate]
Conditions	pEC50 of peptide local stability change
MurD	3.82
UniProt P0AA41	2.34
UniProt P0AES0	3.95
UniProt P0AFU4	3.39
UniProt P0AFW8	3.07
UniProt P0C0L2	3.96
UniProt P03007	2.27
UniProt P06999	3.2
UniProt P07118	3.75
UniProt P07604	4.06
UniProt P08192	2.7
UniProt P11868	3.41
UniProt P18392	2.88
UniProt P21693	3.65
UniProt P23874	3.78
UniProt P24182	3.89
UniProt P24230	2.78
UniProt P25741	3.2
UniProt P27296	3.36
UniProt P27833	2.89
UniProt P30844	2.71
UniProt P33593	4.43
UniProt P37634	2.64
UniProt P39177	3.26
UniProt P39359	3.49
UniProt P40719	3.59
UniProt P64610	4.1
UniProt P75828	2.65
UniProt P75957	3.56
UniProt P76419	3.74
UniProt P76422	3.76

Reference: the supplement of paper PMC12819154, “High-throughput peptide-centric local stability assay extends protein–ligand identification to membrane proteins, tissues and bacteria” (Nature Structural & Molecular Biology, 2025)
